Among the data in patent US20090291977A1, “Chromane Derivatives Useful As Acid Pump Antagonists” (priority 2004, published 2009) are IC50 values, retold here.

SMILES strings stand for the structures.

T1 sequence (P19156 2-1034 limits assumed): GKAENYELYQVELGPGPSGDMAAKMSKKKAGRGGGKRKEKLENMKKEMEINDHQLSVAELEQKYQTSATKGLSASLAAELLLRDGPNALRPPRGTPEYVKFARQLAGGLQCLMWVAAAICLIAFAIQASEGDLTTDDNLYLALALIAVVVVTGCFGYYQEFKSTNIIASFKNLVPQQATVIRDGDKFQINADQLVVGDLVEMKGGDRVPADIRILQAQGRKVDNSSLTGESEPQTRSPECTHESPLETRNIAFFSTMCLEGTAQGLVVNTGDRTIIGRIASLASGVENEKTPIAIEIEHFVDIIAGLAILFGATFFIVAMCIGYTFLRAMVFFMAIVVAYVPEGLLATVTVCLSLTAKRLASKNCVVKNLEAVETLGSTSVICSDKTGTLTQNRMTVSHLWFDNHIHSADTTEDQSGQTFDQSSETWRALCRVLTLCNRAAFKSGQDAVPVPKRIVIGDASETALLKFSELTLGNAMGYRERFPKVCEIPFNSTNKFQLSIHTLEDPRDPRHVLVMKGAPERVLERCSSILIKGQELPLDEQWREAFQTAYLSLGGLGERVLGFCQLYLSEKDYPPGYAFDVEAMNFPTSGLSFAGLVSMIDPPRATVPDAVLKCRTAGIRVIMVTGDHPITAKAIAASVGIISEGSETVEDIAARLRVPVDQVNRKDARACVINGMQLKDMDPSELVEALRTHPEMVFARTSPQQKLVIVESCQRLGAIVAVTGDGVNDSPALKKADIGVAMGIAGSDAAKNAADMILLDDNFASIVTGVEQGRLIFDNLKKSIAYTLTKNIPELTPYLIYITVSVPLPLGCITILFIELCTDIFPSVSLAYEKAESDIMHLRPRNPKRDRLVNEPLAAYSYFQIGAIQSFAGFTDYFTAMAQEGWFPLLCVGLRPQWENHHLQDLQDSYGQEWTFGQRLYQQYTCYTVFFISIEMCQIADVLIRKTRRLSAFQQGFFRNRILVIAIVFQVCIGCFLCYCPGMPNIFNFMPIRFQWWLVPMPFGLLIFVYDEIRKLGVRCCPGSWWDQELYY
T1 sequence (P18434 whole entry partner): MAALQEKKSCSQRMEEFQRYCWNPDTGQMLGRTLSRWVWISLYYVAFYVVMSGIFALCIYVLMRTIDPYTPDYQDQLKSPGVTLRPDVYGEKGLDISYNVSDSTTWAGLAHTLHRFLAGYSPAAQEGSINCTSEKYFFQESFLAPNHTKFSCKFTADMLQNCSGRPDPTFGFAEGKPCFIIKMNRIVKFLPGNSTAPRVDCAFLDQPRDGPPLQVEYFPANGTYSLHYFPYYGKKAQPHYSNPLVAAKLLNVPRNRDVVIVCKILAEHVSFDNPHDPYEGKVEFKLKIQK

The assay addresses T1, Porcine gastric H+/K+-ATPase (Sus scrofa, UniProt P19156).
T1 construct: The gastric vesicles were collected from interface on 0.25 M sucrose layer containing 7% Ficoll; from tissue; host or cells: mucous membrane of fresh porcine stomachs (gastric vesicles)
Briefly: Ion-leaky porcine gastric H+/K+-ATPase inhibition. It is filed as biochemical. Conditions: ion-leaky vesicles, 5 mM KCl, pH 6.4, 37° C., 30 minutes. As for the experimental part: The porcine gastric vesicles for Porcine gastric H^+/K^+-ATPase inhibition assays were prepared from mucous membrane in fresh porcine stomachs by homogenization with a tight-fitted polytetrafluoroethylene (Teflone®) homogenizer in 0.25 M sucrose at 4° C. The crude pellet was removed with centrifugation at 20,000 g for 30 min. Then supernatant was centrifuged at 100,000 g for 30 min. The resulting pellet was re-suspended in 0.25 M sucrose, and then subjected to density gradient centrifugation at 132,000 g for 90 min. The gastric vesicles were collected from interface on 0.25 M sucrose layer containing 7% Ficoll™ PM400(Amersham Biosciences). This procedure was performed in a cold room.
Ion-leaky porcine gastric H^+/K^+-ATPase-inhibition was measured according to the modified method described in Biochemical Pharmacology, 1988, 37, 2231-2236.
The isolated vesicles were lyophilized, and then kept in deep-freezer until use. For enzyme assay, lyophilized vesicles were reconstituted with 3 mM MgSO4 containing 40 mM Bis-tris (pH 6.4 at 37° C.).
Enzyme reaction was performed incubating 5 mM KCl, 3 mM Na2ATP, 3 mM MgSO4 and 1.0 μg of reconstituted vesicles for 30 minutes at 37° C. in a final 60 μl of reaction mixture (40 mM Bis-tris, pH 6.4) with or without the test compound. Enzyme reaction was stopped by adding 10% sodium dodecyl sulphate (SDS). Released inorganic phosphate from ATP was detected by incubation with mixture of 1 part of 35 mM ammonium molybdate tetrahydrate in 15 mM Zinc acetate hydrate and 4 parts of 10% ascorbic acid (pH 5.0), resulting in phosphomolybdate, which has optical density at 750 nm.
Turning to `Cc1nc2c(NC3CCOc4cccc(F)c43)cc(C(=O)N(C)C)cn2c1C` (single isomer, unassigned) [Example 10-3, 8-[(5-Fluoro-3,4-dihydro-2H-chromen-4-yl)amino]-N,N,2,3-tetramethylimidazo[1,2-a]pyridine-6-carboxamide], the midpoint of inhibition, the IC50, lay at 91 nM.

On to `Cc1nc2c(NC3CCOc4cccc(F)c43)cc(C(=O)N(C)CCO)cn2c1C` (single isomer, unassigned) [Example 11-2, 8-[(5-Fluoro-3,4-dihydro-2H-chromen-4-yl)amino]-N-(2-hydroxyethyl)-N,2,3-trimethylimidazo[1,2-a]pyridine-6-carboxamide], for which the IC50 (as a rule, the point on the concentration scale where inhibition reaches its midpoint) is 53.8 nM.

On to `Cc1nc2c(NC3CCOc4cccc(F)c43)cc(C(=O)N(C)CCO)cn2c1C` (single isomer, unassigned) [Example 11-3, 8-[(5-Fluoro-3,4-dihydro-2H-chromen-4-yl)amino]-N-(2-hydroxyethyl)-N,2,3-trimethylimidazo[1,2-a]pyridine-6-carboxamide], for which the 50% inhibitory concentration (IC50) worked out at 101 nM.

Regarding `Cc1nc2c(NC3CCOc4ccc(F)cc43)cc(C(=O)N(C)C)cn2c1C` (single isomer, unassigned) [Example 12-2, 8-[(6-Fluoro-3,4-dihydro-2H-chromen-4-yl)amino]-N,N,2,3-tetramethylimidazo[1,2-a]pyridine-6-carboxamide], the IC50 was determined as 197 nM.

Turning to `Cc1nc2c(NC3CCOc4ccc(F)cc43)cc(C(=O)N(C)C)cn2c1C` (single isomer, unassigned) [Example 12-3, 8-[(6-Fluoro-3,4-dihydro-2H-chromen-4-yl)amino]-N,N,2,3-tetramethylimidazo[1,2-a]pyridine-6-carboxamide], the IC50 was determined as 81.1 nM.

`Cc1nc2c(NC3CCOc4ccc(F)cc43)cc(C(=O)N(C)CCO)cn2c1C` (single isomer, unassigned) [Example 13-2, 8-[(6-Fluoro-3,4-dihydro-2H-chromen-4-yl)amino]-N-(2-hydroxyethyl)-N,2,3-trimethylimidazol[1,2-a]pyridine-6-carboxamide] returned an IC50 of 1100 nM.

Molecule `Cc1nc2c(NC3CCOc4ccc(F)cc43)cc(C(=O)N(C)CCO)cn2c1C` (single isomer, unassigned) [Example 13-3, 8-[(6-Fluoro-3,4-dihydro-2H-chromen-4-yl)amino]-N-(2-hydroxyethyl)-N,2,3-trimethylimidazol[1,2-a]pyridine-6-carboxamide] had an IC50 of 170 nM.

`Cc1nc2c(NC3CCOc4c(F)cccc43)cc(C(=O)N(C)C)cn2c1C` (single isomer, unassigned) [Example 14-2, 8-[(8-Fluoro-3,4-dihydro-2H-chromen-4-yl)amino]-N,N,2,3-tetramethylimidazo[1,2-a]pyridine-6-carboxamide] showed an IC50 of 120 nM.

Molecule `Cc1nc2c(NC3CCOc4c(F)cccc43)cc(C(=O)N(C)C)cn2c1C` (single isomer, unassigned) [Example 14-3, 8-[(8-Fluoro-3,4-dihydro-2H-chromen-4-yl)amino]-N,N,2,3-tetramethylimidazo[1,2-a]pyridine-6-carboxamide] displayed an IC50 of 170 nM.

`Cc1nc2c(NC3CCOc4c(F)cccc43)cc(C(=O)N(C)CCO)cn2c1C` (single isomer, unassigned) [Example 15-2, 8-[(8-Fluoro-3,4-dihydro-2H-chromen-4-yl)amino]-N-(2-hydroxyethyl)-N,2,3-trimethylimidazol[1,2-a]pyridine-6-carboxamide] came in with an IC50 of 230 nM.

Turning to `Cc1nc2c(NC3CCOc4c(F)cccc43)cc(C(=O)N(C)CCO)cn2c1C` (single isomer, unassigned) [Example 15-3, 8-[(8-Fluoro-3,4-dihydro-2H-chromen-4-yl)amino]-N-(2-hydroxyethyl)-N,2,3-trimethylimidazol[1,2-a]pyridine-6-carboxamide], the IC50 turned out to be 370 nM.
